Source: patent US9226907B2 (priority 2008, dated 2016)

How the values were obtained:
[1] = in vivo
[2] = higher drug concentrations associated with overdosage (280 μg/mL); cited from earlier work
clinical = conditions: in vivo
From the text: Hydrocodone is structurally similar to other opioid analgesics (hydromorphone and oxycodone).

Compound: CC(=O)Nc1ccc(O)cc1 [acetaminophen, 4′-hydroxyacetanilide]
- Variability in exposures (Cmax and AUC) ([1]; human): not affected by ethanol coadministration
- AUC with different ethanol concentrations versus 0% ethanol [1]: equivalent to that of Vicodin CR alone
- Bound to plasma proteins [2]: 15-21%
- Effect of food on Cmax or AUC (clinical; human): no effect on Cmax or AUC
- Time by which steady state was achieved (clinical; human): ≤ 24 h
- Vd (clinical; human): 78 to 245 L
- Cmax and AUC versus dose (clinical): proportional to dose
